In patent publication US20050033056A1, “Hydroxylated indole derivatives and uses thereof” (priority 2001, published 2005):

Test system: pooled human liver microsomal preparations (HLM)
Test: Compound 1 metabolism / metabolite formation in reconstituted system with pooled HLM
Format: in vitro ADME
Conditions: estimated by UV absorbance at 270 nm, metabolite formed or Compound 1 left after 1 hour with NADPH
Procedure: The metabolism of Compound 1 was determined by the disappearance of Compound 1 or the appearance of Compound 1 metabolites in reaction mixtures as compared to respective controls. Compound 1 was incubated in the reconstituted in vitro reaction systems containing pooled human liver S9 fractions, microsomal preparations, or recombinant hepatic CYP forms, including CYP1A2, CYP2C9, CYP2C19, CYP2D6, CYP2E1, and CYP3A4. The reaction mixture (total volume of 250 μL) contained 0.5 mg of liver microsomal protein, 50 or 25 pmol of recombinant CYP, and Compound 1 (50-80 μM) in 50 mM Tris buffer containing 15 mM MgCl2 (pH 7.4). After incubating at 37° C. with gentle shaking for 1 minute, the reaction was initiated by adding 25 μL of NADPH solution (20 mg/mL), and was carried out for 1 hour. The reaction was terminated by quickly cooling the test tube on ice, followed by the addition of an equal volume of 100% methanol. The samples were centrifuged in a desktop centrifuge at 14,000 rpm for 5 minutes, and the supernatants were filtered through syringe filters (13 mm, 0.45 μm). The filtrates were subjected to analysis using LC/MS (ion trap) or LC/MS/MS.
1. […] The detector was monitored at 270 nm, which is the UVmax of Compound 1 predetermined by scanning between 225-400 nm using a photodiode array detector (PDA). […]

SMILES: CNC(=O)Cc1ccc2ccn(C3CCN(CCc4ccccc4F)CC3)c2c1 [Compound 1, N-methyl-[1-[1-(2-fluorophenethyl)piperidine-4-yl]-1H-indol-6-yl] acetamide]
- Rel. Amount (%): 36%
